The results in this text go back to PMC6458995, “MAP4K4 Inhibition Promotes Survival of Human Stem Cell-Derived Cardiomyocytes and Reduces Infarct Size In Vivo” (Cell Stem Cell, 2019).

Where only a bound is given, the exact number is not on record here.

One data set has as its system 141 human kinases. The data set can be described thus: Kinase selectivity profiling, Dundee Premier Screen, whole panel. To be noted: number of kinases; compounds at 1 μM. It counts as biochemical. The protocol: Kinase selectivity profiling was performed by the International Centre for Kinase Profiling, MRC Protein Phosphorylation and Ubiquitylation Unit (141 kinases; Premier Screen, http://www.kinase-screen.mrc.ac.uk), using a [γ-^33P]ATP filter binding assay ([Bain et al., 2007]). Compounds were screened at 1 μM. For key hits, pIC50 values were then determined by HTRF as above. More complete kinome profiling was performed by Reaction Biology (376 kinases). Stability in mouse and human liver microsomes was determined by Cyprotex.

The test system of the next data set is vCor.4U cells. Put plainly: Mitochondrial function (Seahorse XFe24, OCR and ECAR). The format is cell-based, human. To be noted: menadione 15 μM, 2 h. The method, then: Mitochondrial function in hiPSC-CMs was determined using a Seahorse XFe24 Analyzer. vCor.4U cells (60,000 well^-1) were transferred to 0.1% gelatin-coated XF24 plates and maintained for 5 d, as described above. On day 6, DMX-5804 was added 45 min prior to challenge with menadione for 2 h. The medium was replaced 1 hr before the assay, using bicarbonate-free Seahorse assay medium (8.3 g L^-1 DMEM Base (Sigma-Aldrich), 10 mM glucose, 2 mM L-alanyl-L-glutamine dipeptide (Glutamax-1, GIBCO), 1 mM sodium pyruvate (GIBCO), pH 7.4). Cells were maintained at 37°C without supplemental CO2 starting 1 hr before the assay (IL10 incubator, VWR). For each state measured, three assay cycles were performed (4 min mixing, 2 min wait, and 2 min measurement periods, with readings every 15 s). The basal oxygen consumption rate (OCR) and extracellular acidification rate (ECAR) were determined, followed by sequential injection of 1 μM oligomycin A (Abcam) to inhibit ATP synthase, 0.5 μM […] (FCCP; Abcam) to uncouple oxidative phosphorylation, and 1 μM antimycin A/rotenone (Sigma, Abcam) to inhibit mitochondrial complex III and I. For each condition, 12 wells were tested, comprising 4 independent experiments.

Another data set has as its target cardiac MAP4K4 (Mus musculus, UniProt P97820). Put plainly: Target engagement in vivo (desthiobiotin-ATP probe on cardiac lysates after oral dosing). To be noted: dose-response and time course.
Another data set deals with Cerep Safety 44 panel. Put plainly: Cerep Safety 44 panel (SafetyScreen44). The format is binding. Conditions: except metallothionein 3.
Another data set relates to cardiomyocyte apoptosis. Put plainly: Cardiomyocyte apoptosis after myocardial infarction (TUNEL staining). Conditions: post-injury study. The format is in vivo, mice. The protocol:
Mice were treated subcutaneously with 0.024 mg buprenorphine (average, 1.1 mg kg^-1; […] Animal Health), intubated, and ventilated using a tidal volume of 250 μL and respiratory rate of 150 breaths min^-1 (Hugo-Sachs MiniVent type 845; Harvard Apparatus). After a left thoracotomy in the fourth intercostal space, the pericardium was removed. A 6-0 polypropylene suture was used to […] anterior descending coronary artery (LAD) and tied against a short section of PE-50 polyethylene tubing for 45 min; blood flow was re-established by removing the tubing, releasing the ligature. Ischemia and reperfusion were substantiated by reversible distal blanching and ST segment elevation. Mice were allowed to recover in a heated chamber for 20 min, then moved to a normal holding cage with supplemental heat if necessary. […] Nuclei were stained with 2.5 μg ml^-1 diamidinophenolindole (DAPI). Alternatively, fixed frozen sections were used. Cleaved DNA (apoptotic cells) was visualized using TUNEL ApopTag Kits (Millipore). Cardiomyocytes were identified using MF20 antibody to sarcomeric myosin heavy chains (MyHC; R&D Systems) (fluorescein-conjugated: Figure S3C; unconjugated, plus Alexa Fluor-555 anti-mouse IgG: Figure […]; conjugated and unconjugated mouse IgG2b were the respective controls). Sections were counterstained with DAPI and treated with Prolong Gold Antifade Mountant (Life Technologies). […]

The target in a further data set is T1, hCaV1.2 (Homo sapiens, UniProt Q13936).
T1 construct: HEK293 cells stably expressing full length hCaV1.2; host or cells: HEK293
Put plainly: Ion channel safety screening (Patchliner whole-cell patch clamp). The format is cell-based. The method, then: (§1) Electrophysiological recordings (Apconix) were performed using a Chinese Hamster Ovary cell line stably expressing full length hERG or hNaV1.5, or HEK293 cells stably expressing full length hCaV1.2. Single cell currents were measured in whole-cell configuration at 21-23°C using a Patchliner (Nanion Technologies). The internal solution for hERG contained (mM): 120 KF, 20 KCl, 10EGTA, 10 HEPES (pH 7.3). The internal solution for hNaV1.5 and CaV1.2 contained (mM): 140 CsF, 1 EGTA, 10 NaCl, 10 HEPES (pH 7.3). […] Late Na^+ currents were activated with 50 μM veratridine. Cells were clamped at a holding potential of −80 mV before a depolarising step appropriate for each channel. Currents measured from the step were referenced to the holding current. Compounds were then incubated for 2-3 min prior to a second measurement using an identical pulse train.
On the technique in general: Patch clamp records ionic current or voltage across a cell membrane.

In another data set the target is T2, hNaV1.5 (Homo sapiens, UniProt Q14524).
T2 construct: stably expressing full length hERG or hNaV1.5; host or cells: Chinese Hamster Ovary cell line
Described as above. The format is cell-based. The protocol:
as §1

A further data set concerns the target T3, hERG (Homo sapiens, UniProt Q12809).
T3 construct: stably expressing full length hERG; host or cells: Chinese Hamster Ovary cell line
The description is as above. The format is cell-based. The method, then:
as §1

T1 sequence (Q13936 whole entry): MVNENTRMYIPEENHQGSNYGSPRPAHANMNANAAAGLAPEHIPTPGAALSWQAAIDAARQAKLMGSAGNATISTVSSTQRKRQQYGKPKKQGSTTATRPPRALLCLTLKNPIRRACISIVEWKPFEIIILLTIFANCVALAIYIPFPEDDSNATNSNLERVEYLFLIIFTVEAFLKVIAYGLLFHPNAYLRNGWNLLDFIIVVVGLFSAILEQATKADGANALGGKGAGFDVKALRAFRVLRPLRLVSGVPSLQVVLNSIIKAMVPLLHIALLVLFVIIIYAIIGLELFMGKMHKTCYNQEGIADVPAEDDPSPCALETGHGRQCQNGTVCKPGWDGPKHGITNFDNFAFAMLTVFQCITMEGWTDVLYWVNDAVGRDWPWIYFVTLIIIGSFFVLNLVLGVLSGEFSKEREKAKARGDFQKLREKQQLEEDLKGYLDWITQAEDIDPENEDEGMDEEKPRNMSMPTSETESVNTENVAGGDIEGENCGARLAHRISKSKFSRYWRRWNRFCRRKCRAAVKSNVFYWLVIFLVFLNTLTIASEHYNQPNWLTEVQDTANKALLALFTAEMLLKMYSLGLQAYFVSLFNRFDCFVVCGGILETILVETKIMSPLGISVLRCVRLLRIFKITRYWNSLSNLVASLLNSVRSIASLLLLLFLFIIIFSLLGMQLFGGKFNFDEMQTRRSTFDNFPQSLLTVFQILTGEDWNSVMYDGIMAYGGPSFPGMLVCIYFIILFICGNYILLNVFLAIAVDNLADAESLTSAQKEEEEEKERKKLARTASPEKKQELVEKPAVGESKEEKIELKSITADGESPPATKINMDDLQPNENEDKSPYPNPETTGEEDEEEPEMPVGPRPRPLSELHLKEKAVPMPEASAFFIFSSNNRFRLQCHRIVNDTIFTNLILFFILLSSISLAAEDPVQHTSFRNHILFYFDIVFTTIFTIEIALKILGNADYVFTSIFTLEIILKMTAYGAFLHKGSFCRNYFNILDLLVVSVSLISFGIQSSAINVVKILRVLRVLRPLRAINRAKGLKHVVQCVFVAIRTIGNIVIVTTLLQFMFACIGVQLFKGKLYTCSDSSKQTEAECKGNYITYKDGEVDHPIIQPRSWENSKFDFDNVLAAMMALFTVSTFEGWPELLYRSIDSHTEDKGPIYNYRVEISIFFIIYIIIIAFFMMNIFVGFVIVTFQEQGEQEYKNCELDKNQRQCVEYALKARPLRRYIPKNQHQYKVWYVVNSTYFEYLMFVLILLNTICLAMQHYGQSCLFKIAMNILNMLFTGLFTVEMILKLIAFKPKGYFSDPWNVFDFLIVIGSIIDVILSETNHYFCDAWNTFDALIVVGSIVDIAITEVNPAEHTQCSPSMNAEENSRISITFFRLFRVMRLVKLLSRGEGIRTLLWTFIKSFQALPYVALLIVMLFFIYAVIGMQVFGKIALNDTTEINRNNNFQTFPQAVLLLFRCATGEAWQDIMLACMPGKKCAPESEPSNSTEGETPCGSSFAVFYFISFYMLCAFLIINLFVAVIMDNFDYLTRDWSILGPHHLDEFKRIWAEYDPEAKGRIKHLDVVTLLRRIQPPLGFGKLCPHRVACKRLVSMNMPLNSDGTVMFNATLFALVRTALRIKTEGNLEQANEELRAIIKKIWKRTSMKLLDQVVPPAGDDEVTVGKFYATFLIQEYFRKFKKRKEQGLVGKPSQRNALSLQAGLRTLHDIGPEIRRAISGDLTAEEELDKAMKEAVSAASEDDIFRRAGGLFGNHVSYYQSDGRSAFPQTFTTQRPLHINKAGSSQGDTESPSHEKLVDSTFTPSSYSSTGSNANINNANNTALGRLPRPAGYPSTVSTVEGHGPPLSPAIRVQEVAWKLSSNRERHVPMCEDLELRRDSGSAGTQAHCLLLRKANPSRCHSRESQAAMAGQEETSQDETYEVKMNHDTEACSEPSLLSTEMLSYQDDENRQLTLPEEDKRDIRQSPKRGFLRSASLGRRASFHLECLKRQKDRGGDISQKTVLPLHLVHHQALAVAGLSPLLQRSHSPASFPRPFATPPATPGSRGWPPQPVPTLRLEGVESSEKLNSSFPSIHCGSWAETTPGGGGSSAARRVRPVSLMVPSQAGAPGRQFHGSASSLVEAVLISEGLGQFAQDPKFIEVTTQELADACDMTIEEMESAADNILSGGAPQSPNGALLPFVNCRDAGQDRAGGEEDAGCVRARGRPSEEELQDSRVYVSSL
T1 sequence (Q08289 whole entry partner): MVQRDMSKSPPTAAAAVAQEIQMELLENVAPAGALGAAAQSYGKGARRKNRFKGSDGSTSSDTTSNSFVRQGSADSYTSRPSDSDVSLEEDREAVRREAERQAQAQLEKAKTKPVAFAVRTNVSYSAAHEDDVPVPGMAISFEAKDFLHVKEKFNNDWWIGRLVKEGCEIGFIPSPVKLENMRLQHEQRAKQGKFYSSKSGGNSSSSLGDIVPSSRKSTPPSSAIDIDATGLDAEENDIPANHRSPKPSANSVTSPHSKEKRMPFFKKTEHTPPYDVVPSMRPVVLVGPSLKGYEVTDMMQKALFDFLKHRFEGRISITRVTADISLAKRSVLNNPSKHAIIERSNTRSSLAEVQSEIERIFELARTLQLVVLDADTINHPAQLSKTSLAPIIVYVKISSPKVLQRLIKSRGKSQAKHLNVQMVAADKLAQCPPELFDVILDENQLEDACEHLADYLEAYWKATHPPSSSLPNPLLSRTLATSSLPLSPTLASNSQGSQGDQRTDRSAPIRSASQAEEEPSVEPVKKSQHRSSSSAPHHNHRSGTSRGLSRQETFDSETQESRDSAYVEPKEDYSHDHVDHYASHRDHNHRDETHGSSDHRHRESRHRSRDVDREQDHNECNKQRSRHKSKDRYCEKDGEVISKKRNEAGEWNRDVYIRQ
T1 sequence (P54289 25-956 partner limits assumed): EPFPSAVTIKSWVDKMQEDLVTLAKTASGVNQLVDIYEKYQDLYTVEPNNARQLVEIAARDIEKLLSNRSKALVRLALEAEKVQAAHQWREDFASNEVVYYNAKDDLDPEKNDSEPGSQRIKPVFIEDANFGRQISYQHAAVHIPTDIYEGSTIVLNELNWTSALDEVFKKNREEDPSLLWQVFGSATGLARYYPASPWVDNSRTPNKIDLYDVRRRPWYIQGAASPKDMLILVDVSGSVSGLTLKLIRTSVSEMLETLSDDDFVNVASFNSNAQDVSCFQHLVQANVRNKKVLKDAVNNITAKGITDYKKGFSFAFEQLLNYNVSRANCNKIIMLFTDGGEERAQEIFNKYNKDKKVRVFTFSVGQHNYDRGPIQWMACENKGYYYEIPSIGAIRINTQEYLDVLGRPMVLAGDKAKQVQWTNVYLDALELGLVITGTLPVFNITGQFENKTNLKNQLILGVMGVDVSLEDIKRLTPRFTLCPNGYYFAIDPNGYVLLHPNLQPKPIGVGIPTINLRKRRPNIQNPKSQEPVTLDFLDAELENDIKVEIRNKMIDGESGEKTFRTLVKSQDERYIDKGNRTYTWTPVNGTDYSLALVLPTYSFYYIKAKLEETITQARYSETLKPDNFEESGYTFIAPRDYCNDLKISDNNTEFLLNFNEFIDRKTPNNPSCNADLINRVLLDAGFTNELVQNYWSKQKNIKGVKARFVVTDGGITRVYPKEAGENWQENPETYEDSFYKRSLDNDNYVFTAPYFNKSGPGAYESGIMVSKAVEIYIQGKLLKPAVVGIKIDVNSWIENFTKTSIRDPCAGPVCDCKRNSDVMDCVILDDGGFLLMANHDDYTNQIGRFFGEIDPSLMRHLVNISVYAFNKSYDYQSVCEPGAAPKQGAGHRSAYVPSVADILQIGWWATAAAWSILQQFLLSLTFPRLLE
T1 sequence (P54289 957-1103 partner limits assumed): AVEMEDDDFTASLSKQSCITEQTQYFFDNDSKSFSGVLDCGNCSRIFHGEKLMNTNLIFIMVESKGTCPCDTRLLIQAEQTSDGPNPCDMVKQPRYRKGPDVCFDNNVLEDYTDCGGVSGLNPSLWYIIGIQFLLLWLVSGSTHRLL
T3 sequence (Q12809 whole entry): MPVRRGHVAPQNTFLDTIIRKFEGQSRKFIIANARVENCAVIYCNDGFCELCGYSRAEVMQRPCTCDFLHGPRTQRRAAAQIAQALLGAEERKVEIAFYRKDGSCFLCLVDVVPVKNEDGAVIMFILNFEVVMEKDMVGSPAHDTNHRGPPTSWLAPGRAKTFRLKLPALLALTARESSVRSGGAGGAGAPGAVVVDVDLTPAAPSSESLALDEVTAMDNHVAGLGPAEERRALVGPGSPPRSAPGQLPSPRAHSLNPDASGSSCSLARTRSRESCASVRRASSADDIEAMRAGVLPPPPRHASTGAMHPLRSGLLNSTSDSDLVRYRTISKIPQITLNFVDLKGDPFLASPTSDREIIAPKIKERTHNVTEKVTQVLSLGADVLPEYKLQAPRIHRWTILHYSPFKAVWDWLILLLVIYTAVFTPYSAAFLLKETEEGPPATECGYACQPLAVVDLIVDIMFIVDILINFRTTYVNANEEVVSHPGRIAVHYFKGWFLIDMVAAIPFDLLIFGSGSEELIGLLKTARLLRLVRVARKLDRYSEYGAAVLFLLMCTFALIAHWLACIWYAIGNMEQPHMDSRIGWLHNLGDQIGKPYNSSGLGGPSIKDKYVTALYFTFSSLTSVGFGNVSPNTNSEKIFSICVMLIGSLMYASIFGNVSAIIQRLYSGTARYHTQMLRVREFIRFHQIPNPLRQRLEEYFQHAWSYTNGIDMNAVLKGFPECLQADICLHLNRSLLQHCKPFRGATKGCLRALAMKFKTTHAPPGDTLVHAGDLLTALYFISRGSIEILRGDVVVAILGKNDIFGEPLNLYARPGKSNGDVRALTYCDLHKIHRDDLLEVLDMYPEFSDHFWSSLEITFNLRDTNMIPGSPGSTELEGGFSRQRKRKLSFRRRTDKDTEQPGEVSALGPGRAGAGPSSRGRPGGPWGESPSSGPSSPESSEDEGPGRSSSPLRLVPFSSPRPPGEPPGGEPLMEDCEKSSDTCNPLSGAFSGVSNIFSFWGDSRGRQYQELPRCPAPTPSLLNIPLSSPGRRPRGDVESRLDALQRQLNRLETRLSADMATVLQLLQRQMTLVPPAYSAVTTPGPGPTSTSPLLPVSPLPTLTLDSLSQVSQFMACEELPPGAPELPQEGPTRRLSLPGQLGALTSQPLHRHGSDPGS

Consider `Oc1ncnc2c1c(-c1ccccc1)cn2-c1ccccc1` [F1386-0303, 5,7-diphenyl-7H-pyrrolo[2,3-d]pyrimidin-4-ol], for which the “off-target effects among 141 human kinases” value in the data set with 141 human kinases came to 5.
By IC50 is commonly meant the midpoint of a concentration-inhibition curve. Higher therefore signals weaker potency. Turning to `COCCOc1ccc(-c2cn(-c3ccccc3)c3nc[nH]c(=O)c23)cc1` [DMX-5804, 5-[4-(2-methoxy-ethoxy)-phenyl]-7-phenyl-3,7-dihydro-pyrrolo[2,3-d]pyrimidin-4-one], in the data set on vCor.4U cells (10 μM), the extracellular acidification rate result was “partially rescued”. In addition, the “improvement of residual maximum oxidative capacity” value in the data set with vCor.4U cells (10 μM) came out at 5 fold. For the same compound, in the data set with vCor.4U cells (below 10 μM), the “maximum oxidative capacity at lesser concentrations” value was “No significant benefits”. Further, the “inhibition of ATP binding to cardiac MAP4K4 in vivo” value at cardiac MAP4K4 was “substantiated”. Further, the “Cerep Safety 44 panel” value in the data set on Cerep Safety 44 panel is recorded as “no off-target effect”. Besides, the “suppression of cardiomyocyte apoptosis in adjacent jeopardized myocardium” value in the data set on cardiomyocyte apoptosis came out at 52%. In the data set on cardiomyocyte apoptosis, the “suppression of cardiomyocyte apoptosis within the infarct” value is given as 39%. Further, the off-target effect result on hCaV1.2 (cloned human hCaV1.2), on hNaV1.5 (cloned human hNaV1.5) and on hERG (cloned human hERG) was “no off-target effect” each time. In addition, the half-inhibitory concentration (IC50) at hCaV1.2 (hCaV1.2, HEK cells, 4-parameter logistic fit) was > 30 µM; on hNaV1.5 (hNaV1.5, CHO cells, 4-parameter logistic fit) it was > 30 µM; against hERG (hERG, CHO cells, 4-parameter logistic fit) it was > 30 µM.
